The subject of assay [1] is cerebellar granule cells. The following applies: read-out: ED50 (antineurotoxic activity); 2 hrs pretreatment, then 100 µM glutamate 60 minutes; MTT after 24 hr.
Description: Primary cultures of cerebellar granule cells have been prepared from 8-day-old Sprague-Dawley rats.
Neurons have been grown in 35 mm dishes for 11-13 days and kept in a humidified environment (95% air and 5% CO2) at 37° C. […] Glial proliferation was prevented by cytosine arabinofuranoside.
Concentrations from 100 µM to 5 µM have been tested.
The cell culture medium was aspirated from the dishes (and properly stored). The dishes were washed (3x2 ml) with Locke's solution, then the solutions (1.5 ml) containing the compound to be tested were added, and incubated for 2 hrs in incubator at 37° C (5% CO2).
The treated cells were washed (3x2 ml) with Locke's solution + 10% fetal calf serum heat inactivated (without glutamic acid), then washed (3x2 ml) in Locke's solution in the absence of Mg^2+. […]
At the end of the incubation the cell viability measured by using the MTT colorimetric test was evaluated (Mosmann T., Rapid colorimetric assay for cellular growth and survival: application to proliferation and cytotoxicity assays. J. Immunol. Meth. 65, 55-63, 1983 and modified according to Skaper S.D. et al.: Death of cultured hippocampal pyramidal neurons induced by pathological activation of N-methyl-Daspartate receptors is reduced by monosialogangliosides. J. Pharm. and Exp. Ther. 259, 1, 452-457, 1991). The data are expressed as ED50 (µM).
For assay [2], the system named is Mouse neuroblastoma cells C1300, Neuro-2A clone. The assay is described as follows: Neuritogenic activity (% of neurite-bearing cells under the optical microscope). It counts as cell-based. The following applies: for EC50: neuroblastoma cells N2A, % of neurite-bearing cells, read-out: ED50 (µM) neuritogenic effect. How it is done: Mouse neuroblastoma cells C1300, Neuro-2A clone (obtained from American Cell Type Culture Collection - Bethesda, Md) have been seeded at a density of 10,000 cells/well (24-Falcon) in tissue culture medium containing Dulbecco's modified Eagle medium (DMEM, Gibco), 10% fetal calf serum heat inactivated (FCS, lot 7201 Seromed), penicillin (100 units per ml, Irvine) and L-glutamine (2 mM, Sigma). Cells have been incubated at 37° C for 24 hr, then the medium was withdrawn and substituted with 350 µl of fresh culture medium with and without the compounds to be tested.
The derivatives have been solubilized in chloroform/methanol (2/1) and then dried under a flow of nitrogen.
For the different compounds, consecutive dilutions in tissue culture medium (concentrations from 50 µM to 5 µM) were performed.
Culture dishes incubated with the tested compounds were analyzed under a phase contrast microscope (250x) : 9 optical fields were chosen with prefixed coordinates and photographed. Then, the total number of cells were counted, as well as the number of neurite-bearing cells (length at least double of the cell diameter) in blind on every picture. The percentage of neurite-bearing cells was determined following the counting of at least 100 cells, and the data were expressed by the respective ED50 (µM) (Facci L. et al.: Promotion of neuritogenesis in mouse neuroblastoma cells by exogenous ganglioside GM1. J. Neurochem. 229-305, 1984).

The next assay has as its target T1, CD4 (Homo sapiens, UniProt P01730).
T1 construct: 100% of Molt 3 cells express CD4; host or cells: Molt 3 cells (human acute lymphoblastic leukemia T-cell line)
Nature of the assay: Expression of the CD4 molecule in Molt 3 cells (flow cytofluorimetry with anti-CD4 mAb). It counts as cell-based. The following applies: 60 minutes at 37° C. From the text:
Molt 3 cells (American Type Culture Collection - Rockville, MD, USA) have been utilized, human tumoral cell lines derived from an acute lymphoblastic leukemia and formed by T lymphocytes expressing CD4 on their surface. Such a cell line was chosen due to the fact that it overlaps, as regards the expression of the CD4 molecule, human T lymphocytes obtained from peripheral blood. 100% of Molt 3 cells express CD4, whereas only part of human T lymphocytes from peripheral blood express CD4 in a proportion varying from subject to subject. The Molt 3 model has therefore the advantage of allowing a better experimental reliability.
Molt 3 cells (1x10^6) have been incubated with different concentrations of Liga 179 (from 1 µg/ml to 500 µg/ml) for 60 minutes at 37° C in buffered saline (PBS), with or without Fetal Calf Serum (FCS). When utilized, FCS was added at a concentration of 5 or 10 part/percentage (vol/vol). Following the incubation and the subsequent washing the percentage of cells expressing CD4 has been measured by flow cytofluorimetry using a monoclonal, fluoresceinated (mAb), specific for CD4 (DAKO T4, Dakopatts, Glostrup, Denmark) and a cytofluorimeter (EPICS V, Coulter Electronics, Hialeah, Florida, USA). In Table 4 are reported the data concerning the percentage of Molt 3 cells that express CD4, following the incubation with the compound under examination at the different concentrations utilized.

In assay [3] the test system is cerebellar granule cells. The note with it: read-out: ED50 (antineurotoxic activity); co-treatment with 100 µM glutamate, 30 minutes; MTT after 24 hours.
Description: Thus, dilutions have been performed at different concentrations in Locke's solution (154 mM NaCl, 5.6 mM KCl, 3.6 mM NaHCO3, 2.3 mM CaCl2, 5.6 mM glucose, 4.6 mM Hepes, pH 7.4). Concentrations from 100 µM to 5 µM have been tested.
The cell culture medium was aspirated from the dishes (and properly stored). The dishes were washed (3x2 ml) with Locke's solution in the absence of Mg^2+. Then, 1.5 ml of Locke's solution (-Mg^2+) with or without 100 µM glutamate and with or without the compound to be tested were added. The incubation period lasted 30 minutes (37° C). Glutamate and the compound to be tested were then removed. The dishes were washed with Locke's solution in the presence of Mg^2+ (2x2 ml) and then incubated in the presence of the initial medium (properly stored) for 24 hours at 37° C in an incubator (5% CO2).
At the end of the incubation cell viability measured by means of the MTT colorimetric test was evaluated (Mosmann T.: Rapid colorimetric assay for cellular growth and survival: application to proliferation and cytotoxicity assays. J Immunol. Meth. 65, 55-63, 1983 and modified according to Skaper S.D. et al.: Death of cultured hippocampal pyramidal neurons induced by pathological activation of N-methyl-D-aspartate receptors is reduced by monosialogangliosides. J. Pharm. and Exp. Ther. 259,1, 452-457, 1991). Data were expressed as ED50 (µM).

Where two headings read alike, the source gives them in different places.

For “N-4-CHLOROBENZENESULFONYL-LYSOGM1 [Liga 123]”, the EC50 in the assay on cerebellar granule cells [1] stood at 6 µM; in assay [2] it was 12 µM. The “% of neurite-bearing cells” value in assay [2] (dose of 25 µM) is reported as “about 48%”.

Regarding N-BENZENESULFONYL-LYSO GM1 [Liga 125], in assay [2], the EC50 came to 25 µM.

Consider “O-SULFATED N'SULFO-N'-LYSO-GM1 [Liga 179]”, for which the “% MOLT-3 cells expressing CD4 on the surface” value on CD4 (10 µg/ml, FCS 0 %, without compound 96.9) is given as 0%; on CD4 (50 µg/ml, FCS 0 %, without compound 96.9) it was 0%; on CD4 (100 µg/ml, FCS 0 %, without compound 96.9), 0%; on CD4 (100 µg/ml, FCS 5 %, without compound 98.6) it was 15.5%; at CD4 (100 µg/ml, FCS 10 %, without compound 96.9), 86.5%; at CD4 (200 µg/ml, FCS 5 %, without compound 98.6), 0%. The “% MOLT-3 cells expressing CD4 on the surface” value on CD4 (200 µg/ml, FCS 10 %, without compound 96.9) was 14.6%; at CD4 (500 µg/ml, FCS 5 %, without compound 98.6) it was 0%; at CD4 (500 µg/ml, FCS 10 %, without compound 96.9) it was 0%. The EC50 with cerebellar granule cells [3] is 15 µM.

Values taken from patent EP0688331B1, “NEW SULFATED LYSO-GANGLIOSIDE DERIVATIVES” (FIDIA S.p.A., priority 1993, dated 1994).
